# Test results as given in US8541415B2 (University of Pittsburgh—of the Commonwealth System of …, priority 2008, dated 2013).
# Assays:
# [1] = tested on: HIV-1 strain NL4-3; assay: microbe, parasite or virus in culture; type: cell-based
# Protocol: (§1) Lead compounds from the yeast screen were evaluated for activity in a Nef-dependent HIV replication assay. For these experiments, U87MG astroglioma cells engineered to express the HIV-1 co-receptors CD4 and CXCR4 were employed. Replication of HIV-1 NL4-3 is dependent upon an intact viral nef gene in these cells, making this system suitable to evaluate leads from the Nef-directed screen. U87MG cells were infected with HIV-1 in the presence of the top five compounds identified in the yeast screen, and HIV replication was monitored as p24 release into the culture supernatant 4 days later, as known in the art. As known in the art, “p24” refers to a constituent protein of the capsid of HIV-1.
# (§2) The data of Table 1 are presented as percent p24 release relative to control in the absence of compound. […] Data are expressed as percent viable cells relative to untreated control culture.
# It is understood that “strongest” and like terms in the context of inhibitors identified in a library screen refer to compounds that inhibit at the lowest concentrations. For these experiments, the U87MG astroglioma cell line was used as a model system. […] U87MG cells were infected with HIV-1 strain NL4-3 as well as an isogenic variant that fails to express Nef (ΔNef), over a wide range of viral titers and in the presence of each compound at 5 μM. Viral replication was assessed as HIV p24 antigen release into the culture supernatant 4 and/or 5 days later. Methods for the assay of p24 in culture supernatant are well known in the art and include, for example without limitation, immunochemical methods.
# [2] = tested on: U87MG cells; conditions: human, 96 h, 30 μM
# Protocol: as §1, §2
# [3] = target: T1, Hck alone (Homo sapiens, UniProt P08631); assay: In vitro kinase assay of Hck alone (Z'-LYTE, peptide substrate); type: biochemical; conditions: Z'-Lyte dose-response, FIG. 7
# T1 construct: made in house; host or cells: Sf9 insect cells
# T1 sequence (P08631 with tags, fused parts or gaps isoform P08631-3): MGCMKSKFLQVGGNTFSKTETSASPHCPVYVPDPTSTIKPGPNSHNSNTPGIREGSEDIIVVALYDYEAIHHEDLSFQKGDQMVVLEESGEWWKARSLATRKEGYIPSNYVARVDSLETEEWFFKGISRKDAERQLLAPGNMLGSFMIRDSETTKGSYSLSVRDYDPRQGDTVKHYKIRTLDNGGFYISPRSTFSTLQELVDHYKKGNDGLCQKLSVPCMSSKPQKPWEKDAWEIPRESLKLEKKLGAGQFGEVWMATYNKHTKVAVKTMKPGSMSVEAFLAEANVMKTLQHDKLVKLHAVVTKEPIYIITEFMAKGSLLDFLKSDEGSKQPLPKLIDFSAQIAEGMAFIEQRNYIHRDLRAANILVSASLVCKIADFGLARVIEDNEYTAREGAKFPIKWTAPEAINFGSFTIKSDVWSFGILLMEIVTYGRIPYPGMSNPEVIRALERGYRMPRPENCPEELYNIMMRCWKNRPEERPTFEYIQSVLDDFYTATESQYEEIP
# [4] = target: Nef:Hck-YEEI complex (Homo sapiens, UniProt P08631); conditions: Z'-Lyte dose-response, FIG. 7
# Nef:Hck-YEEI complex, sequence (P08631 with tags, fused parts or gaps isoform P08631-3, other chains not shown): as the sequence (P08631 with tags, fused parts or gaps isoform P08631-3) above
smiles,measurement,setting,value
Nc1ncnc2oc(-c3ccccc3)c(-c3ccccc3)c12 [IIIi],activity at 5 µM,"[1]; Human immunodeficiency virus 1, NL43, U-87 MG, 96 h, read-out: HIV p24% Control @ day 4",72%
same,Anti-retroviral activity,[1]; data not shown,very weak anti-retroviral activity
same,"Cytotoxicity, Viable cell % control",[2],94 % control
same,Inhibition of Hck alone,[3],virtually inactive
same,Inhibition of Nef:Hck complex,[4],virtually inactive
